According to PubChem BioAssay (NCI):
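Values below derive from 48-hour exposures of cells grown in 96-well plates, with endpoints linearly interpolated between the two concentrations bracketing the appropriate inhibition level. GI50 = concentration required for 50% inhibition of growth. TGI: total growth inhibition.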

What was measured:
Assay in all cases: NCI tumour cell line growth inhibition, 48 h
[1] = tested on: LOX IMVI melanoma
[2] = tested on: SNB-19 CNS
[3] = tested on: SK-OV-3 ovarian
[4] = tested on: U251 CNS
[5] = tested on: UO-31 renal
[6] = tested on: SF-295 CNS
[7] = tested on: HCC-2998 colon
[8] = tested on: COLO 205 colon
[9] = tested on: MCF7 breast
[10] = tested on: OVCAR-4 ovarian

Structure (SMILES)	TGI [1]	TGI [2]	TGI [3]	TGI [4]	TGI [5]	TGI [6]	TGI [7]	TGI [8]	GI50 [1]	GI50 [2]	GI50 [3]	GI50 [4]	GI50 [5]	GI50 [9]	TGI [9]	GI50 [6]	GI50 [8]	TGI [10]	GI50 [10]
c1ccc2c(c1)CCc1c-2n[nH]c1-c1[nH]nc2c1CCc1ccccc1-2	> 100 µM	> 100 µM	> 100 µM	> 100 µM	> 100 µM	> 100 µM	> 100 µM	> 100 µM	–	–	–	–	–	–	–	–	–	–	–
Cc1ccc(C2C3Cc4ccccc4C3=NN2c2ccc(S(=O)(=O)/N=c3\scc(-c4ccccc4)n3-c3ccccc3)cc2)cc1 (centres undefined)	31.2 µM	> 100 µM	> 100 µM	37.8 µM	55.4 µM	40.1 µM	–	52.1 µM	17.4 µM	64.8 µM	33.1 µM	18.7 µM	18.4 µM	5.71 µM	33.7 µM	19.1 µM	23.3 µM	–	–
NC1=NC(=O)C(CC(=O)Nc2ccc(Cl)cc2Cl)S1 (centres undefined)	> 100 µM	> 100 µM	> 100 µM	> 100 µM	> 100 µM	> 100 µM	> 100 µM	> 100 µM	–	–	–	–	–	–	–	–	–	> 100 µM	–
Cc1cc(=O)c2c(O)cc3c(c2o1)CC=C(COC1OC(COC2OC(CO)C(O)C(O)C2O)C(O)C(O)C1O)CO3 (centres undefined)	> 100 µM	> 100 µM	> 100 µM	> 100 µM	> 100 µM	> 100 µM	> 100 µM	> 100 µM	–	–	–	–	–	–	–	–	–	> 100 µM	–
N[C@H](COCc1ccccc1)c1ccccc1	> 92.2 µM	> 89.7 µM	> 100 µM	> 100 µM	87.4 µM	82.5 µM	> 91.7 µM	29.2 µM	–	–	–	–	–	–	–	–	–	> 100 µM	–
Cc1ccccc1-n1c(N)c(-c2nc3ccccc3[nH]2)sc1=S	52.6 µM	66.4 µM	72.6 µM	–	45.6 µM	42.4 µM	34.8 µM	49 µM	–	–	–	–	–	–	–	–	–	78.3 µM	–
Cc1ccc(NC(=O)C(=O)C(C(=O)/C=C/c2ccccc2)C2OC(=O)c3ccccc32)c(C)c1 (centres undefined)	> 100 µM	> 100 µM	> 100 µM	> 100 µM	> 100 µM	> 100 µM	> 100 µM	> 100 µM	–	–	–	–	–	–	–	–	–	> 100 µM	–
O=C(Cc1nc2ccccc2o1)C(=O)Nc1cccc(C(F)(F)F)c1	> 100 µM	> 100 µM	> 100 µM	> 100 µM	> 100 µM	> 100 µM	> 100 µM	> 100 µM	–	–	–	–	–	–	–	–	–	> 100 µM	–
O=C(O)CCNS(=O)(=O)c1ccc([N+](=O)[O-])cc1	> 100 µM	> 100 µM	> 100 µM	> 100 µM	> 100 µM	> 100 µM	> 100 µM	> 100 µM	–	–	–	–	–	–	–	–	–	> 100 µM	–
N#CC1(C#N)C(c2ccccc2)C=CC12OCCCO2 (centres undefined)	> 100 µM	> 100 µM	> 100 µM	> 100 µM	> 100 µM	> 100 µM	> 100 µM	93.6 µM	–	–	–	–	–	–	–	–	–	> 100 µM	–
CC1=C(CC2C(=O)N(c3ccccc3)S(=O)(=O)NC2C)C(=O)N(c2ccccc2)S(=O)(=O)N1C (centres undefined)	> 100 µM	> 100 µM	> 100 µM	–	> 100 µM	> 100 µM	> 100 µM	> 100 µM	–	–	–	–	–	–	–	–	–	> 100 µM	–
CCOC(=O)/C(I)=C/c1cc(OC)c(OC)c(OC)c1	5.01 µM	31.8 µM	> 100 µM	18.3 µM	19.1 µM	54.4 µM	27.8 µM	18.2 µM	–	–	–	–	–	–	–	–	–	52.4 µM	–
NNc1nnc(-c2nnc(NN)o2)o1	–	> 10 µM	–	> 10 µM	> 10 µM	> 10 µM	> 10 µM	> 10 µM	–	–	–	–	–	–	> 10 µM	–	–	> 10 µM	–
COc1cc(C2(C)SCCCS2)cc(OC)c1OC	> 100 µM	> 100 µM	> 100 µM	> 100 µM	> 100 µM	> 100 µM	> 100 µM	> 100 µM	–	–	–	–	–	–	–	–	–	> 100 µM	–
C[C@@H]1O[C@@H](O[C@@H]2[C@@H](O)[C@H](OCCc3ccc(O)c(O)c3)O[C@H](CO)[C@H]2OC(=O)/C=C/c2ccc(O)c(O)c2)[C@H](O)[C@H](OC2OC[C@](O)(CO)[C@H]2O)[C@H]1O (some centres undefined)	37 µM	> 100 µM	> 100 µM	> 100 µM	> 100 µM	> 100 µM	–	> 100 µM	19.4 µM	> 100 µM	> 100 µM	> 100 µM	> 100 µM	–	–	> 100 µM	> 100 µM	> 100 µM	> 100 µM
CCOC(=O)C1Nc2ccccc2[C@H]2OCC[C@@H]12 (some centres undefined)	> 100 µM	> 100 µM	> 100 µM	> 100 µM	–	> 100 µM	> 100 µM	> 100 µM	–	–	–	–	–	–	–	–	–	> 100 µM	–
O=C(NCCNCCO)c1cccc2ccc(-c3ccccc3)nc12	10.5 µM	28.7 µM	27.7 µM	17.4 µM	12 µM	18.9 µM	17.1 µM	13.6 µM	–	–	–	–	–	–	–	–	–	18.5 µM	–
COc1ccc(OC(=O)CC2Cc3cc(OC)c(OC)c(OC)c3-c3ccc(SC)c(=O)cc32)cc1 (centres undefined)	17.8 µM	> 100 µM	61.4 µM	> 100 µM	> 100 µM	–	0.503 µM	> 100 µM	–	–	–	–	–	–	–	–	–	> 100 µM	–
CC(C)(C)c1cc2nc(c1)C(C(F)(F)F)(C(F)(F)F)OB(Br)OC2(C(F)(F)F)C(F)(F)F	3.78 µM	14.9 µM	10.7 µM	1.37 µM	2.72 µM	3.4 µM	11.4 µM	0.364 µM	–	–	–	–	–	–	–	–	–	–	–
O=C(O)c1cc(CCc2cc(O)ccc2O)ccc1O	> 100 µM	–	> 100 µM	> 100 µM	> 100 µM	> 100 µM	–	> 100 µM	–	–	–	–	–	–	> 100 µM	–	–	> 100 µM	–
CCCCNc1nc(NC2OCC(OC(C)=O)C(OC(C)=O)C2OC(C)=O)c(N=O)c(=O)n1C (centres undefined)	> 10 µM	> 10 µM	> 10 µM	> 10 µM	–	> 10 µM	> 10 µM	> 10 µM	–	–	–	–	–	–	> 10 µM	–	–	> 10 µM	–
CC1=NN(c2ccccc2)C(=O)/C1=C\c1ccc([N+](=O)[O-])cc1	48.1 µM	> 100 µM	58.7 µM	> 100 µM	> 100 µM	68.9 µM	63.2 µM	33 µM	–	–	–	–	–	–	–	–	–	42.2 µM	–
